US4487777A (priority 1981, dated 1984)

Tests used:
[1] = tested on: Phytophthora infestans conidia; assay: whole plant or invertebrate; type: in vivo; details: in Solanum lycopersicum, 168 h, read-out: % Control TLB (Tomato Late Blight)
Septoria apii = type: in vivo; details: celery (Utah) plants; % disease reduction relative to untreated check plants; concentration not given
[2] = tested on: Alternaria solani conidia; assay: Tomato Early Blight control (tomato seedlings, sprayed then inoculated); type: in vivo; details: 288 h, 250-ppm solution, tomato (Bonny Best), relative to untreated check plants, read-out: % Control TEB (Tomato Early Blight)
Protocol: Compounds of the invention were tested for the control of the Tomato Early Blight organism, Alternaria solani conidia. Tomato (variety Bonny Best) seedlings of 6 to 7 weeks old were used. The tomato plants were sprayed with a 250-ppm solution of the test compound in an acetone-and-water solution containing a small amount of a non-ionic emulsifier. The sprayed plants were inoculated one day later with the organism, placed in the environmental chamber and incubated at 66°-68° F. and 100% relative humidity for 24 hours. Following the incubation, the plants were maintained in the greenhouse for about 12 days. Percent disease control was based on the percent disease development on untreated check plants.

Plasmapora viticola = assay: Grape Downy Mildew control (detached grape leaves); type: in vivo; details: detached Vitis vinifera cultivar Emperor leaves; % disease reduction relative to untreated check plants; concentration not given
Protocol: Grape Downy Mildew Control
The compounds of the invention were tested for the control of the grape downy mildew organism Plasmapora viticola. Detached leaves, between 70 and 85 mm in diameter, of 7-week-old Vitis vinifera cultivar Emperor grape seedlings were used as hosts. The leaves were sprayed with a solution of the test compound in acetone. The sprayed leaves were dried, inoculated with a spore suspension of the organism, placed in a humid environmental chamber and incubated at 66°-68° F. and about 100% relative humidity. After incubation for 2 days, the plants were then held in a greenhouse for seven to nine days. Afterwards, the amount of disease control was determined. The percent disease control provided by a given test compound was based on the percent disease reduction relative to untreated check plants.

Rhizoctonia solani = assay: Rhizoctonia mycelial inhibition test; type: cell-based; details: 500 ppm in acetone; 25° C., 24 hours; standard Difolatan; "0" assigned where greater than 1.6 micrograms/cm^2 required for 99% control
Protocol: Compounds of the present invention were evaluated for effectiveness against Rhizoctonia solani by means of a mycelial inhibition test. This test is designed to measure the fungitoxic activity of fungicidal chemicals in terms of their degree of inhibition of mycelial growth. Each compound to be tested was dissolved in acetone to 500 ppm concentration. Paper strips were infused with the particular mycelium growth (on this case Rhizoctonia solani) by covering the paper with a potato dextrose broth culture of mycelial suspension. The papers were then placed on potato dextrose agar plates and sprayed by means of a microsprayer with the fungicidal solution. The treated paper strips were incubated at 25° C. and data taken after 24 hours. Fungicidal activity is measured by the zone of inhibited mycelial growth from the center of the paper strip. The effectiveness of the compounds tested for fungicidal activity against Rhizoctonia solani is reported in Table III in terms of the [formula] In cases where greater than 1.6 micrograms/cm^2 were required for 99% control, a value of "0" was assigned to the test compound.

Botrytis cinerea = Botrytis cinerea preventive control on harvested grape berries; type: in vivo; details: grape berries (Emperor)
Protocol: EXAMPLE 15-Botrytis Cinerea Control
Compound 1 of the invention was tested as a preventive fungicide against Botrytis cinerea on harvested mature grape berries (variety Emperor) by the following procedure: four grape bunches (trimmed to approximately 30 berries) were sprayed with a solution of the test compound in a solution of water, acetone and a small amount of a non-ionic emulsifier. The sprayed grapes were inoculated approximately one day later with 2- to 3-week-old culture of Botrytis cinerea grown on potato dextrose agar plates. The rate of disease incidence was determined 5-10 days after inoculation, when disease symptoms are fully evident on non-treated check grapes. Infection is determined by actual count of the number of infected berries. The percent disease control provided by a test compound was calculated from the percentage disease reduction based on the non-treated check grapes.

Compound	pest or weed control at 250 µg/mL [1] [%]	% Control CLB (Celery Late Blight) (Septoria apii) [%]	pest or weed control at 250 µg/mL [2] [%]	% Control Grape DM (Grape Downy Mildew) (Plasmapora viticola) [%]	% Control Rhizoc (Rhizoctonia) (Rhizoctonia solani) [%]	Botrytis Prevention (% Control) (Botrytis cinerea; 40 ppm) [%]	Botrytis Prevention (% Control) (Botrytis cinerea; 100 ppm) [%]	Botrytis Prevention (% Control) (Botrytis cinerea; 250 ppm) [%]
COC(=O)CCSCC1CC(=O)N(c2cc(Cl)cc(Cl)c2)C1=O (centres unmarked) [Compound 7]	21	0	89	97	0			
C=CCS(=O)(=O)CC1CC(=O)N(c2cc(Cl)cc(Cl)c2)C1=O (centres unmarked) [Compound 9, N-3,5-dichlorophenyl-2-allylsulfonylmethylsuccinimide]	25	50	63	57	80			
COC(=O)CS(=O)(=O)CC1CC(=O)N(c2cc(Cl)cc(Cl)c2)C1=O (centres unmarked) [Compound 1, N-3,5-dichlorophenyl-2-methoxycarbonylmethylsulfonylmethylsuccinimide]	11	57	89	81	0	58	52	58
CC(C)(C)SC=C1CC(=O)N(c2cc(Cl)cc(Cl)c2)C1=O [Compound 14, N-3,5-dichlorophenyl-2-t-butylthiomethenylsuccinimide]	67	57	96	42	0			
O=C1CC(C2SCCS2)C(=O)N1c1cc(Cl)cc(Cl)c1 (centres unmarked) [Compound 8, N-3,5-dichlorophenyl-2-formylsuccinimide-2-dithioketal]	89	29	98	18	30			
CC(=O)SCC1CC(=O)N(c2cc(Cl)cc(Cl)c2)C1=O (centres unmarked) [Compound 5, N-3,5-dichlorophenyl-2-thioacetylmethylsuccinimide]	0	0	57	23	0			
C=C(Cl)CS(=O)(=O)CC1CC(=O)N(c2cc(Cl)cc(Cl)c2)C1=O (centres unmarked) [Compound 10]	29	50	83	18	91			
CCSC=C1CC(=O)N(c2cc(Cl)cc(Cl)c2)C1=O [Compound 13, N-3,5-dichlorophenyl-2-ethylthiomethenylsuccinimide]	0	0	94	35	0			
COC(=O)CSCC1CC(=O)N(c2cc(Cl)cc(Cl)c2)C1=O (centres unmarked) [Compound 6, N-3,5-dichlorophenyl-2-methoxycarbonylmethylthiomethylsuccinimide]	39	50	80	18	0			
CC(C)(C)S(=O)(=O)C=C1CC(=O)N(c2cc(Cl)cc(Cl)c2)C1=O [Compound 11, N-3,5-dichlorophenyl-2-t-butylsulfonylmethenylsuccinimide]	6	0	0	8	0			
CCOC(=O)CSCC1CC(=O)N(c2cc(Cl)cc(Cl)c2)C1=O (centres unmarked) [Compound 4, N-3,5-dichlorophenyl-2-ethoxycarbonylmethylthiomethylsuccinimide]	84		0	0	0			
O=C1CC(=CSc2ccccc2)C(=O)N1c1cc(Cl)cc(Cl)c1 [Compound 12, N-3,5-dichlorophenyl-2-phenylthiomethenylsuccinimide]	21	0	0	0	0			
COC(=O)CCS(=O)(=O)CC1CC(=O)N(c2cc(Cl)cc(Cl)c2)C1=O (centres unmarked) [Compound 2]	23	45	96	71	0			
CCOC(=O)CS(=O)(=O)CC1CC(=O)N(c2cc(Cl)cc(Cl)c2)C1=O (centres unmarked) [Compound 3, N-3,5-dichlorophenyl-2-ethoxycarbonylmethylsulfonylmethylsuccinimide]	93		85	23	78			
